US20230295141A1, “FXR SMALL MOLECULE AGONIST, THE PREPARATION AND USE THEREOF” (Cascade Pharmaceuticals, Inc., priority 2022, published 2023)
Where two headings read alike, the source gives them in different places.

Target: T1, FXR (Homo sapiens, UniProt Q96RI1)
T1 construct: expressed in transfected cells; host or cells: HEK293T
T1 sequence (Q96RI1 212-476 isoform Q96RI1-1 limits assumed): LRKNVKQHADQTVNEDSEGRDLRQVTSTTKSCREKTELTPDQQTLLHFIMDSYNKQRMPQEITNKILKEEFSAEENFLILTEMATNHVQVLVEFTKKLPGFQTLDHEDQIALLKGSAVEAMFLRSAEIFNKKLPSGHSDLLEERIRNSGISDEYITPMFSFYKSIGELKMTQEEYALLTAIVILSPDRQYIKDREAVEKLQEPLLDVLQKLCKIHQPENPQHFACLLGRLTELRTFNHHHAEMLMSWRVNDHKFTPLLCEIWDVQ
Experiment: FXR agonistic activity by GAL4-FXR-LBD reporter gene (Dual-Glo luciferase) detection in HEK293T cells
Type: cell-based
Text: Methods for Detecting FXR Agonistic Activity of Compounds Based on Reporter Gene Activity Detection Methods: The pGAL4-FXR-LBD and pG5-Luc plasmids used in the reporter gene detection system were constructed according to conventional molecular cloning methods, including main steps: the FXR (NM_001206979.2) cDNA sequence corresponding to the amino acid sequence of FXR-LBD (212-476AA) was inserted into pGAL4 vector between BamHI and Notl restriction sites using PCR technology to obtain pGAL4-FXR-LBD; pG5-Luc and phRL-TK plasmids were donated by Shanghai Institute of Materia Medica, Chinese Academy of Sciences; the plasmid was transformed into DH5a Escherichia coli by the CaC12 method, and after further culture and amplification, the corresponding plasmid DNA was purified and obtained with a plasmid extraction kit (TIANGEN, #D107). HEK293T cells were seeded in 96-well plates at a density of 1×10^4/well one day before plasmid transfection. Cell transfection was performed according to the instructions of the transfection reagent FuGENE® HD (Promega, #E2311), including main steps: […] 0.25 uL of FuGENE® HD was added, mixed well and let stand for 5 min at room temperature; then 10 uL of this mixture was added to the cell well containing 100 uL of culture medium. […] Then the diluted compounds were added to the cell culture medium for treatment for 24 h. 2 duplicate wells were set up in total. […] After cells were treated with compounds for 24 h, detections were performed according to the instructions of the Dual-Glo® Luciferase Assay System (Promega, #E2940), including main steps: […] then 40 uL of Dual-Glo® Stop & Glo® reagent were added and shaken at room temperature for 10 min; the luminescence signal value of Renilla luciferase (Renilla-Luc) was detected by the MD i3x multifunctional microplate reader; The ratio of Firefly-Luc/Renilla-Luc was used as the activating activity of the compound on FXR, and normalized by the ratio of the solvent DMSO group. The dose- response curves were fitted with four parameters using GraphPad Prism 6.0 software, and EC50 values were calculated.

[1] = Cellular Level Activity EC50(nM) of FXR, HEK293T cells, pGAL4-FXR-LBD/pG5-Luc reporter, 24 h treatment
[2] = HEK293T cells, pGAL4-FXR-LBD/pG5-Luc reporter, 24 h treatment, read-out: Cellular Level Activity EC50(nM) of FXR
[3] = HEK293T reporter gene assay, read-out: EC50 values (FXR agonistic activity)
[4] = EC50 values (FXR agonistic activity), HEK293T reporter gene assay

Row | EC50 [2] [nM] | Structure (SMILES) | EC50 [1] [nM] | other results
1 | < 5 | [2H]C([2H])(O[C@H]1C[C@H]2CC[C@@H](C1)N2c1ccc(-c2noc(=O)[nH]2)cc1)c1c(-c2c(Cl)cccc2Cl)noc1C1CC1 [Example 1] | – | EC50 [3]: < 5 nM
2 | < 5 | [2H]C([2H])(O[C@H]1C[C@H]2CC[C@@H](C1)N2c1ccc(-c2noc(=O)[nH]2)nc1)c1c(-c2c(Cl)cccc2Cl)noc1C1CC1 [Example 2] | – | EC50 [3]: < 5 nM
3 | 5 to 10 | [2H]C([2H])(O[C@H]1C[C@H]2CC[C@@H](C1)N2c1ccc(-c2noc(=O)[nH]2)c(C)c1)c1c(-c2c(Cl)cccc2Cl)noc1C1CC1 [Example 5] | – | –
4 | 5 to 10 | [2H]C([2H])(O[C@H]1C[C@H]2CC[C@@H](C1)N2c1ccc(-c2noc(=O)[nH]2)c(OC)c1)c1c(-c2c(Cl)cccc2Cl)noc1C1CC1 [Example 6] | – | –
5 | 5 to 10 | [2H]C([2H])(O[C@H]1C[C@H]2CC[C@@H](C1)N2c1ccc(-c2noc(=O)[nH]2)c(C(F)(F)F)c1)c1c(-c2c(Cl)cccc2Cl)noc1C1CC1 [Example 7] | – | –

Second part, the compound before the results:

Row | Structure (SMILES) | EC50 [2] [nM] | EC50 [1] [nM] | other results
6 | O=c1[nH]c(-c2ccc(N3[C@@H]4CC[C@H]3C[C@@H](OCc3c(-c5c(Cl)cccc5Cl)noc3C3CC3)C4)cc2F)no1 [Control 1, reference compound] | – | 5 to 10 | –
7 | [2H]C([2H])(O[C@H]1C[C@H]2CC[C@@H](C1)N2c1ccc(-c2noc(=O)[nH]2)c(F)c1)c1c(-c2c(Cl)cccc2Cl)noc1C1CC1 [Example 3] | – | < 5 | EC50 [4]: < 5 nM; FXR agonistic / cellular level activity, in words (HEK293T reporter gene assay, comparison with LJN452 and Control 1): significantly improved activity
8 | [2H]C(O[C@H]1C[C@H]2CC[C@@H](C1)N2c1ccc(-c2noc(=O)[nH]2)c(F)c1)c1c(-c2c(Cl)cccc2Cl)noc1C1CC1 (stereo partly drawn) [Example 4] | – | < 5 | EC50 [4]: < 5 nM
9 | [2H]C([2H])(O[C@H]1C[C@H]2CC[C@@H](C1)N2c1ccc(-c2noc(=O)[nH]2)c(F)c1)c1c(-c2ccccc2C(F)(F)F)noc1C1CC1 [Example 8] | 5 to 10 | – | –
10 | [2H]C([2H])(O[C@H]1C[C@H]2CC[C@@H](C1)N2c1ccc(-c2noc(=O)[nH]2)c(F)c1)c1c(-c2ccccc2OC(F)(F)F)noc1C1CC1 [Example 9] | 5 to 10 | – | –
